Literature values as cited in US20050205101A1, “Combined pharmocological and surgical method and system for the treatment of eye disorders” (priority 2002, published 2005).
Where a name gives a salt, the structure may show the parent alone.

Legend:
emmetropic eye = conditions: typical concentration of about 4%
[1] = system: intraocular pressure (IOP); conditions: used topically, elevated IOP; van Alphen 1976
presbyopic patient = conditions: presbyopia, administration to the eye; Neufeld US 5,488,050

CC[C@@H]1C(=O)OC[C@@H]1Cc1cncn1C [Pilocarpine hydrochloride, pilocarpine hydrochloride]
adverse side effect on refraction (emmetropic eye): becomes myopic
near and distant vision (emmetropic eye): enhanced near vision but at the sacrifice of distant vision

CC(C)(C)NC[C@H](O)COc1nsnc1N1CCOCC1 [Timolol]
tonic accommodation (accommodation in humans; unfocused eyes, subjects with mean age of 23, Nyberg 1976): net increase in tonic accommodation
intraocular pressure (IOP) [1]: lower the IOP
vision of presbyopic subject (presbyopic patient): improved

CC(C)NCC(O)COc1ccc(CCOCC2CC2)cc1 (centres unmarked) [betaxolol]
intraocular pressure (IOP) [1]: lower the IOP

CC(C)(C)NC[C@H](O)COc1cccc2c1CCCC2=O [levobunolol]
intraocular pressure (IOP) [1]: lower the IOP

CC(=O)Oc1cc(C(C)C)c(OCCN(C)C)cc1C [thymoxamine]
gain in accommodation (accommodation in humans; treated subjects, Zetterstrom 1987): transient gain in accommodation
